Laboratory results reported in ChEMBL document CHEMBL1201862, “PubChem BioAssay data set” (2004).
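Five compound concentrations were applied to cells in 96-well plates for 48 hours; endpoints were derived by simple linear interpolation of the resulting dose-response curve. GI50 = concentration required for 50% inhibition of growth.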 Activity calls are given as the source filed them. Rule as the data show it: active = GI50 up to about 1.1 µM and inactive = higher.

Tests used:
Test in all cases: growth of human tumour cells (NCI), 48 h
SNB-19 = test system: SNB-19
SK-OV-3 = test system: SK-OV-3
MOLT-4 = test system: MOLT-4
CCRF-CEM = test system: CCRF-CEM
SNB-75 = test system: SNB-75
HL-60 = test system: HL-60
EKVX = test system: EKVX
CAKI-1 = test system: CAKI-1
A498 = test system: A498
KM12 = test system: KM12
NCI-H522 = test system: NCI-H522
U-251 = test system: U-251
TK-10 = test system: TK-10
UO-31 = test system: UO-31
RXF 393 = test system: RXF 393

In the case of `O=C1C=CC2(O)OCC3C=C4O[C@@H]5OC6(CCCCC6)O[C@@H]5C4[C@@H]2[C@@H]13` (stereo partly drawn), the GI50 (SNB-19) is reported as > 100 µM (inactive), the GI50 (SK-OV-3) is reported as > 100 µM (inactive) and the GI50 (MOLT-4) is reported as 9.25 µM (inactive). The GI50 (CCRF-CEM) was 8.73 µM (inactive), the GI50 (SNB-75) was 35.6 µM (inactive) and the GI50 (HL-60) was 16.5 µM (inactive). The GI50 (EKVX) was 38.3 µM (inactive), the GI50 (CAKI-1) was 22.7 µM (inactive) and the GI50 (A498) was 72.4 µM (inactive). For the same compound, the GI50 (KM12) was 38.5 µM (inactive), the GI50 (NCI-H522) was 11.3 µM (inactive) and the GI50 (U-251) was > 100 µM (inactive). For the same compound, the GI50 (TK-10) was 20.7 µM (inactive) and the GI50 (UO-31) was 18.6 µM (inactive).
With `CCCCOC1CC2(c3ccc(OC)cc3)C(=O)c3ccccc3N2O1` (stereo not drawn) the GI50 (RXF 393) was 16.6 µM (inactive), the GI50 (SNB-19) was > 10 µM (inactive) and the GI50 (SK-OV-3) was > 100 µM (inactive). The GI50 (MOLT-4) was 19 µM (inactive), the GI50 (CCRF-CEM) was 31.5 µM (inactive) and the GI50 (SNB-75) was > 100 µM (inactive). The GI50 (EKVX) was 40.7 µM (inactive), the GI50 (CAKI-1) was 41.6 µM (inactive) and the GI50 (A498) was > 10 µM (inactive). The GI50 (KM12) was 62.2 µM (inactive), the GI50 (NCI-H522) was 21.3 µM (inactive) and the GI50 (U-251) was > 10 µM (inactive). For the same compound, the GI50 (TK-10) was > 100 µM (inactive) and the GI50 (UO-31) was > 10 µM (inactive).
`Cc1nc(-c2nc(C)c(C(=O)NNC(=O)C[n+]3ccccc3)s2)sc1C(=O)NNC(=O)C[n+]1ccccc1` was tested, and the GI50 (RXF 393) was 39.5 µM (inactive), the GI50 (SNB-19) was 25.4 µM (inactive) and the GI50 (SK-OV-3) was 87.5 µM (inactive). The GI50 (MOLT-4) was 22.7 µM (inactive), the GI50 (CCRF-CEM) was 41.3 µM (inactive) and the GI50 (SNB-75) was 25.5 µM (inactive). For the same compound, the GI50 (HL-60) was 40.2 µM (inactive), the GI50 (EKVX) was 97.3 µM (inactive) and the GI50 (CAKI-1) was 18.6 µM (inactive). For the same compound, the GI50 (A498) was 58.6 µM (inactive), the GI50 (KM12) was > 100 µM (inactive) and the GI50 (U-251) was 79.4 µM (inactive). The GI50 (TK-10) was > 100 µM (inactive) and the GI50 (UO-31) was 25.9 µM (inactive).
In the case of `COC(=O)CSc1ccccc1`, the GI50 (RXF 393) is reported as > 100 µM (inactive), the GI50 (SNB-19) is reported as > 100 µM (inactive) and the GI50 (SK-OV-3) is reported as > 100 µM (inactive). The GI50 (MOLT-4) was > 100 µM (inactive), the GI50 (CCRF-CEM) was > 100 µM (inactive) and the GI50 (SNB-75) was > 100 µM (inactive). For the same compound, the GI50 (HL-60) was > 100 µM (inactive), the GI50 (EKVX) was > 100 µM (inactive) and the GI50 (CAKI-1) was > 100 µM (inactive). The GI50 (A498) was > 100 µM (inactive), the GI50 (KM12) was > 100 µM (inactive) and the GI50 (U-251) was > 100 µM (inactive). The GI50 (TK-10) was > 100 µM (inactive) and the GI50 (UO-31) was > 100 µM (inactive).
In the case of `C=CCN1/C(=C2\SC(=S)N(c3ccc(C)cc3)C2=O)Sc2c1nc[nH]c2=O`, the GI50 (RXF 393) is reported as 26.4 µM (inactive), the GI50 (SNB-19) is reported as > 100 µM (inactive) and the GI50 (SK-OV-3) is reported as > 100 µM (inactive). For the same compound, the GI50 (MOLT-4) was 58.9 µM (inactive), the GI50 (CCRF-CEM) was > 100 µM (inactive) and the GI50 (HL-60) was > 100 µM (inactive). The GI50 (EKVX) was > 100 µM (inactive), the GI50 (CAKI-1) was > 100 µM (inactive) and the GI50 (A498) was > 100 µM (inactive). For the same compound, the GI50 (NCI-H522) was 59.2 µM (inactive), the GI50 (U-251) was 79.8 µM (inactive) and the GI50 (TK-10) was > 100 µM (inactive). The GI50 (UO-31) was > 100 µM (inactive).
With `CCCCCCCCCCCCCP(=O)(O)OCC` the GI50 (RXF 393) was > 100 µM (inactive), the GI50 (SNB-19) was > 100 µM (inactive) and the GI50 (CCRF-CEM) was > 100 µM (inactive). For the same compound, the GI50 (SNB-75) was > 100 µM (inactive), the GI50 (HL-60) was > 100 µM (inactive) and the GI50 (EKVX) was > 100 µM (inactive). For the same compound, the GI50 (A498) was > 100 µM (inactive), the GI50 (KM12) was > 100 µM (inactive) and the GI50 (NCI-H522) was > 100 µM (inactive). For the same compound, the GI50 (U-251) was > 100 µM (inactive), the GI50 (TK-10) was > 100 µM (inactive) and the GI50 (UO-31) was > 100 µM (inactive).
`O=C1/C(=C\c2ccccc2)C2/C(=C\c3ccccc3)C(=O)/C(=C\c3ccccc3)C2/C1=C\c1ccccc1` (stereo not drawn) was tested, and the GI50 (RXF 393) was 1.53 µM (inactive), the GI50 (SK-OV-3) was 19.7 µM (inactive) and the GI50 (MOLT-4) was 0.437 µM (active). The GI50 (CCRF-CEM) was 0.34 µM (active), the GI50 (SNB-75) was 17.3 µM (inactive) and the GI50 (HL-60) was 0.608 µM (active). For the same compound, the GI50 (EKVX) was 3.89 µM (inactive), the GI50 (CAKI-1) was 2.67 µM (inactive) and the GI50 (KM12) was 1.42 µM (inactive). The GI50 (NCI-H522) was 0.592 µM (active), the GI50 (U-251) was 1.17 µM (inactive) and the GI50 (TK-10) was 3.87 µM (inactive). The GI50 (UO-31) was 1.7 µM (inactive).
In the case of `CNC(=O)NCCCC(NC(C)=O)C(=O)NCc1ccccc1` (stereo not drawn), the GI50 (RXF 393) is reported as > 100 µM (inactive), the GI50 (SNB-19) is reported as > 100 µM (inactive) and the GI50 (SK-OV-3) is reported as > 100 µM (inactive). For the same compound, the GI50 (MOLT-4) was > 100 µM (inactive), the GI50 (CCRF-CEM) was > 100 µM (inactive) and the GI50 (SNB-75) was 42.2 µM (inactive). The GI50 (EKVX) was > 100 µM (inactive), the GI50 (CAKI-1) was > 100 µM (inactive) and the GI50 (A498) was > 100 µM (inactive). For the same compound, the GI50 (KM12) was > 100 µM (inactive), the GI50 (NCI-H522) was > 100 µM (inactive) and the GI50 (U-251) was > 100 µM (inactive). For the same compound, the GI50 (TK-10) was > 100 µM (inactive) and the GI50 (UO-31) was > 100 µM (inactive).
